Experimental data reported in PubChem BioAssay AID1259411 (Chemical Carcinogenesis Research Information System (CCRIS), 2018).
Active and inactive are the calls of the source. The rule behind the calls is not given here.

Tested on: rodent carcinogenicity bioassays, tumor incidence
Assay: CCRIS carcinogenicity studies
Method in brief: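 Archive of carcinogenicity, mutagenicity, tumor promotion and tumor inhibition results drawn from journals, NCI reports and other sources, expert-reviewed; covers 1985-2011 and is no longer updated.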

## C=C(C)c1ccccc1
Species: Mouse, Strain/Sex: B6C3F1/Female (50/group), Route: Inhalation, Dose: 0, 100, 300, 600 ppm for 6 hr/d, 5 d/wk, except holidays, for 105 wk, Dose: 0, 100, 300, 600 ppm for 6 hr/d, 5 d/wk, except holidays, for 105 wk, Tumor Site: Type of Lesion: Liver: hepatocelllular carcinoma (3/50, 9/50, 6/50, 18/50), hepatocellular adenoma and carcinoma combined (13/50, 26/50
  carcinogen call: active; positive (ntp reports as clear evidence)
Species: Mouse, Strain/Sex: B6C3F1/Male (50/group), Route: Inhalation, Dose: 0, 100, 300, 600 ppm for 6 hr/d, 5 d/wk, except holidays, for 105 wk, Dose: 0, 100, 300, 600 ppm for 6 hr/d, 5 d/wk, except holidays, for 105 wk, Tumor Site: Type of Lesion: Liver: hepatocellular adenoma and carcinoma combined (28/50, 36/50, 33/50, 37/50 (considered equivocal))
  carcinogen call: inactive; negative; p value not significant (ntp reports as equivocal evidence)
Species: Rat, Strain/Sex: F344/N / Female (50/group), Route: Inhalation, Dose: 0, 100, 300, 1000 ppm for 6 hr/d, 5 d/wk, except holidays, for 105 wk, Dose: 0, 100, 300, 1000 ppm for 6 hr/d, 5 d/wk, except holidays, for 105 wk
  carcinogen call: inactive; negative
Species: Rat, Strain/Sex: F344/N / Male (50/group), Route: Inhalation, Dose: 0, 100, 300, 1000 ppm for 6 hr/d, 5 d/wk, except holidays, for 105 wk, Dose: 0, 100, 300, 1000 ppm for 6 hr/d, 5 d/wk, except holidays, for 105 wk, Tumor Site: Type of Lesion: Kidney: renal tubule adenoma and carcinoma combined (0/50, 0/50, 3/50, 7/50 (single and step sections)) Mononuclear cell
  carcinogen call: active; positive (ntp reports as some evidence)

## COC(N)=O
Species: MOUSE, Strain/Sex: B6C3F1/FEMALE, Route: GAVAGE, Dose: 0, 500, 1000 MG/KG IN DISTILLED WATER 5D/WK FOR 103 WK (STUDY DURATION: 105 WK), 1000 MG/KG IN DISTILLED WATER 5D/WK FOR, Dose: 0, 500, 1000 MG/KG IN DISTILLED WATER 5D/WK FOR 103 WK (STUDY DURATION: 105 WK), 1000 MG/KG IN DISTILLED WATER 5D/WK FOR
  carcinogen call: inactive; negative
Species: MOUSE, Strain/Sex: B6C3F1/MALE, Route: GAVAGE, Dose: 0, 500, 1000 MG/KG IN DISTILLED WATER 5D/WK FOR 103 WK (STUDY DURATION: 105 WK);1000 MG/KG IN DISTILLED WATER 5D/WK FOR, Dose: 0, 500, 1000 MG/KG IN DISTILLED WATER 5D/WK FOR 103 WK (STUDY DURATION: 105 WK);1000 MG/KG IN DISTILLED WATER 5D/WK FOR
  carcinogen call: inactive; negative
Species: RAT, Strain/Sex: F344/FEMALE, Route: GAVAGE, Dose: 0, 100, 200 MG/KG IN DISTILLED WATER 5D/WK FOR 103 WK (STUDY DURATION: 105 WK), 400 MG/KG IN DISTILLED WATER 5D/WK FOR 6, Dose: 0, 100, 200 MG/KG IN DISTILLED WATER 5D/WK FOR 103 WK (STUDY DURATION: 105 WK), 400 MG/KG IN DISTILLED WATER 5D/WK FOR 6, Tumor Site: Type of Lesion: LIVER: NEOPLASTIC NODULE, LIVER: NEOPLASTIC NODULE OR HEPATOCELLULAR CARCINOMA, LIVER: HEPATOCELLULAR CARCINOMA, Tumor Site: Type of Lesion: LIVER: NEOPLASTIC NODULE, LIVER: NEOPLASTIC NODULE OR HEPATOCELLULAR CARCINOMA, LIVER: HEPATOCELLULAR CARCINOMA
  carcinogen call: active; positive
Species: RAT, Strain/Sex: F344/MALE, Route: GAVAGE, Dose: 0, 100, 200 MG/KG IN DISTILLED WATER 5D/WK FOR 103 WK (STUDY DURATION: 105 WK), 400 MG/KG IN DISTILLED WATER 5D/WK FOR 6, Dose: 0, 100, 200 MG/KG IN DISTILLED WATER 5D/WK FOR 103 WK (STUDY DURATION: 105 WK), 400 MG/KG IN DISTILLED WATER 5D/WK FOR 6, Tumor Site: Type of Lesion: LIVER: NEOPLASTIC NODULES, LIVER: HEPATOCELLULAR CARCINOMA
  carcinogen call: active; positive

## Cl/C=C\CCl
Species: MOUSE, Strain/Sex: ICR/FEMALE, Route: SUBCUTANEOUS, Dose: 3.0 MG/INJ IN 0.05 ML TRIOCTANOIN 1/WK, Tumor Site: Type of Lesion: INJECTION SITE: FIBROSARCOMA
  carcinogen call: active; positive
